Test results taken from patent US10633419B2, “Immunomodulators” (BRISTOL-MYERS SQUIBB COMPANY, priority 2014, dated 2020).
Positions of bridges follow the written chain, without caps; N, C: chain ends. Non-standard residues stand in square brackets, D forms with d. Residues, ends and D or L forms follow the SMILES beside them. *: point of attachment. X7 = CCCCCCCCCCCCCCCCNC(=O)[C@H](CC(=O)O)NC(=O)CCC(=O)NCCCOCCOCCOCCCN*; X13 = O=C(O)CCCCCCCCCCCCCCC(=O)N[C@@H](CCC(=O)NCCCOCCOCCOCCCN*)C(=O)O; Trp(1-CH2COOH) = N[C@@H](Cc1cn(CC(=O)O)c2ccccc12)C(=O)O; NH(CH2)14COOH = O=C(O)CCCCCCCCCCCCCCN*; d(cisHyp) = O=C(O)[C@H]1C[C@@H](O)CN1; Stearoyl = CCCCCCCCCCCCCCCCCC(=O)*; Hyp = O=C(O)[C@@H]1C[C@@H](O)CN1; NMeNle = CCCC[C@H](NC)C(=O)O; NMeA = CN[C@@H](C)C(=O)O; Pra = C#CC[C@H](N)C(=O)O; Aun = NCCCCCCCCCCC(=O)O; Dab = NCC[C@H](N)C(=O)O; Dap = NC[C@H](N)C(=O)O

Biological target: T1, PD-L1 (Homo sapiens, UniProt Q9NZQ7)
T1 construct: hPDL1(19-239)-TVMV-His; made in house; host or cells: HEK293T
Assay: PD-1/PD-L1 Homogenous Time-Resolved Fluorescence (HTRF) binding assay (PD-1-Ig/PD-L1-His)
Details: inhibition of PD-1-Ig binding to PD-L1-TVMV-His; value given as number; read-out: HTRF IC50
Summary of the method: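 HTRF competition in dPBS with 0.1% BSA and 0.05% Tween-20: 20 nM PD-1-Ig added after 15 min compound pre-incubation with 10 nM PD-L1-His, then another 15 min. Signal (665/620 nm) after 30 min with APC anti-His (20 nM) and Eu anti-Ig (1 nM).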

T1 sequence (Q9NZQ7 with tags, fused parts or gaps): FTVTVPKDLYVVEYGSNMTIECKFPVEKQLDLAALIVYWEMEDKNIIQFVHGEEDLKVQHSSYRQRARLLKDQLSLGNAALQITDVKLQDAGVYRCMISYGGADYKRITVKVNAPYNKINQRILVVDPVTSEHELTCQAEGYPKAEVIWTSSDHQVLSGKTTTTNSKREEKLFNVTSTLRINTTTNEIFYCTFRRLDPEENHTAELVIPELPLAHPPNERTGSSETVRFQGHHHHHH

Row | IC50 [nM] | Compound
1 | 952 | CCCCCCCCCCCCCCCCCC(=O)NCCCC[C@H](NC(=O)[C@@H]1CSCC(=O)N[C@@H](Cc2ccc(O)cc2)C(=O)N(C)[C@@H](C)C(=O)N[C@@H](CC(N)=O)C(=O)N2CCC[C@H]2C(=O)N[C@@H](CCN)C(=O)N[C@@H](CC(C)C)C(=O)N2C[C@H](O)C[C@H]2C(=O)N[C@@H](Cc2c[nH]c3ccccc23)C(=O)N[C@@H](CO)C(=O)N[C@@H](Cc2c[nH]c3ccccc23)C(=O)N(C)[C@@H](CCCC)C(=O)N(C)[C@@H](CCCC)C(=O)N[C@@H](CCCNC(=N)N)C(=O)N1)C(N)=O [Example 11001] ({CH2CO}-Y[NMeA]NP[Dab]L[Hyp]WSW[NMeNle][NMeNle]RCK(Stearoyl)-NH2; thioether N-14)

Same assay, conditions: inhibition of PD-1-Ig binding to PD-L1-TVMV-His; value given as range class; read-out: HTRF IC50

Row | IC50 [nM] | Compound
2 | 10 to 99 | C#CC[C@H](NC(=O)CNC(=O)[C@@H]1CSCC(=O)N[C@@H](Cc2ccc(O)cc2)C(=O)N(C)[C@@H](C)C(=O)N[C@@H](CC(=O)O)C(=O)N2CCC[C@H]2C(=O)N[C@@H](CN)C(=O)N[C@@H](CC(C)C)C(=O)N2C[C@H](O)C[C@H]2C(=O)N[C@@H](Cc2c[nH]c3ccccc23)C(=O)N[C@@H](CCN)C(=O)N[C@@H](Cc2cn(CC(=O)O)c3ccccc23)C(=O)N(C)[C@@H](CCCC)C(=O)N(C)[C@@H](CCCC)C(=O)N[C@@H](CCC(=O)O)C(=O)N1)C(=O)O [INT130AE] ({CH2CO}-Y[NMeA]DP[Dap]L[Hyp]W[Dab][Trp(1-CH2COOH)][NMeNle][NMeNle]ECG[Pra]-OH; thioether N-14)
3 | 10 to 99 | CCCC[C@H]1C(=O)N(C)[C@@H](CCCC)C(=O)N[C@@H](CC(C)C)C(=O)N[C@H](C(=O)NCCCCCCCCCCC(=O)N[C@@H](CC(=O)O)C(=O)O)CSCC(=O)N[C@@H](Cc2ccc(O)cc2)C(=O)N(C)[C@@H](C)C(=O)N[C@@H](CC(N)=O)C(=O)N2CCC[C@H]2C(=O)N[C@@H](Cc2cnc[nH]2)C(=O)N[C@@H](CCC(=O)O)C(=O)N2C[C@H](O)C[C@H]2C(=O)N[C@@H](Cc2c[nH]c3ccccc23)C(=O)N[C@@H](CCN)C(=O)N[C@@H](Cc2c[nH]c3ccccc23)C(=O)N1C [Example 11129] ({CH2CO}-Y[NMeA]NPHE[Hyp]W[Dab]W[NMeNle][NMeNle]LC[Aun]D-OH; thioether N-14)
4 | 10 to 99 | CCCCCCCCCCCCCCCCNC(=O)[C@H](CC(=O)O)NC(=O)CCC(=O)NCCCOCCOCCOCCCNC(=O)CNC(=O)[C@@H]1CSCC(=O)N[C@@H](Cc2ccc(O)cc2)C(=O)N(C)[C@@H](C)C(=O)N[C@@H](CC(=O)O)C(=O)N2CCC[C@H]2C(=O)N[C@@H](Cc2cnc[nH]2)C(=O)N[C@@H](CC(C)C)C(=O)N2C[C@H](O)C[C@H]2C(=O)N[C@@H](Cc2c[nH]c3ccccc23)C(=O)N[C@@H](CO)C(=O)N[C@@H](Cc2c[nH]c3ccccc23)C(=O)N(C)[C@@H](CCCC)C(=O)N(C)[C@@H](CCCC)C(=O)N[C@@H](CCCNC(=N)N)C(=O)N1 [Example 11128] ({CH2CO}-Y[NMeA]DPHL[Hyp]WSW[NMeNle][NMeNle]RCG-X7; thioether N-14)
5 | 10 to 99 | CCCC[C@H]1C(=O)N(C)[C@@H](CCCC)C(=O)N[C@@H](CC(C)C)C(=O)N[C@H](C(=O)NCC(=O)NCCCCCCCCCCCCCCC(=O)O)CSCC(=O)N[C@@H](Cc2ccc(O)cc2)C(=O)N(C)[C@@H](C)C(=O)N[C@@H](CC(N)=O)C(=O)N2CCC[C@H]2C(=O)N[C@@H](CN)C(=O)N[C@@H](CC(C)C)C(=O)N2C[C@H](O)C[C@H]2C(=O)N[C@@H](Cc2c[nH]c3ccccc23)C(=O)N[C@@H](CCN)C(=O)N[C@@H](Cc2cn(CC(=O)O)c3ccccc23)C(=O)N1C [Example 11197] ({CH2CO}-Y[NMeA]NP[Dap]L[Hyp]W[Dab][Trp(1-CH2COOH)][NMeNle][NMeNle]LCG-{NH(CH2)14COOH}; thioether N-14)
6 | 0.3 to 9.9 | CCCC[C@H]1C(=O)N(C)[C@@H](CCCC)C(=O)N[C@@H](CC(C)C)C(=O)N[C@H](C(=O)NCC(=O)NCCCOCCOCCOCCCNC(=O)CC[C@H](NC(=O)CCCCCCCCCCCCCCC(=O)O)C(=O)O)CSCC(=O)N[C@@H](Cc2ccc(O)cc2)C(=O)N(C)[C@@H](C)C(=O)N[C@@H](CC(N)=O)C(=O)N2CCC[C@@H]2C(=O)N[C@@H](CN)C(=O)N[C@@H](CC(C)C)C(=O)N2C[C@H](O)C[C@@H]2C(=O)N[C@@H](Cc2c[nH]c3ccccc23)C(=O)N[C@@H](CCN)C(=O)N[C@@H](Cc2cn(CC(=O)O)c3ccccc23)C(=O)N1C [Example 11168] ({CH2CO}-Y[NMeA]N[dP][Dap]L[d(cisHyp)]W[Dab][Trp(1-CH2COOH)][NMeNle][NMeNle]LCG-X13; thioether N-14)
